How the values were obtained:
HDAC6 = HDAC6 (Homo sapiens (Human), UniProt Q9UBN7); conditions: read-out: HDAC6 IC50
HDAC3 = HDAC3 (Homo sapiens (Human), UniProt O15379); experiment: HDAC enzyme assay, HDAC3; conditions: for HDAC3 fold over HDAC6 IC50 (selectivity for HDAC6): ratio HDAC3/HDAC6; for IC50: read-out: HDAC3 IC50
HDAC2 = HDAC2 (Homo sapiens (Human), UniProt Q92769); experiment: HDAC enzyme assay, HDAC2; conditions: for HDAC2 fold over HDAC6 IC50 (selectivity for HDAC6): ratio HDAC2/HDAC6; for IC50: read-out: HDAC2 IC50
Sequence of HDAC2 (Q92769 whole entry): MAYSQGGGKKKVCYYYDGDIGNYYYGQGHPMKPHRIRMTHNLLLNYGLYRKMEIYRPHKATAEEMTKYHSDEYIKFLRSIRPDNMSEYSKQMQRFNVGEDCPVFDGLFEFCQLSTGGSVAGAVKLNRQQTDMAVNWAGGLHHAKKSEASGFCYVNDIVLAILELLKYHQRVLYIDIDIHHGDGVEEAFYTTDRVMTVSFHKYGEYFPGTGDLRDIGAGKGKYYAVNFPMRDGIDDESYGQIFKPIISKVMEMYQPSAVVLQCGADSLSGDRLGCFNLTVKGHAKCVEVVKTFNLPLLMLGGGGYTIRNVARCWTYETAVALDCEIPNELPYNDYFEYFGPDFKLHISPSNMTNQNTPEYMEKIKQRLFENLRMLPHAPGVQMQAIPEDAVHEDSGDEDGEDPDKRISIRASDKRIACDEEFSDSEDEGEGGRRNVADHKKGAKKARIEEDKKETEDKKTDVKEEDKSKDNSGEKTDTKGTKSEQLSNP

HDAC1 = HDAC1 (Homo sapiens (Human), UniProt Q13547); experiment: HDAC enzyme assay, HDAC1; conditions: for HDAC1 fold over HDAC6 IC50 (selectivity for HDAC6): ratio HDAC1/HDAC6; for IC50: read-out: HDAC1 IC50
Sequence of HDAC1 (Q13547 whole entry): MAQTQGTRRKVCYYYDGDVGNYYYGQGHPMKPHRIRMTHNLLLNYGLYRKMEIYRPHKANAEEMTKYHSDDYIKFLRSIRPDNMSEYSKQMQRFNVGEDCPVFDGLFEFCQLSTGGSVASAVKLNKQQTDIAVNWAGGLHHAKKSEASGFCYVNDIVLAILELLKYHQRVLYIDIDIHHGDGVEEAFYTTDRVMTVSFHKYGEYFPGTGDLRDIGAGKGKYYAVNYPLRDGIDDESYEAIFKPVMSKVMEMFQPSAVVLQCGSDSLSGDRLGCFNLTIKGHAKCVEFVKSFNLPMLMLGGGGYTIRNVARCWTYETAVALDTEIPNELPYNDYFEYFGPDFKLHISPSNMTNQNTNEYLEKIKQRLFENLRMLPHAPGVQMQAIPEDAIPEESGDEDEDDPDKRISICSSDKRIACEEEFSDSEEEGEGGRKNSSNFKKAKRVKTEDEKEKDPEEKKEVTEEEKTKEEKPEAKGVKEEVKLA

Sequence of HDAC6 (Q9UBN7 whole entry): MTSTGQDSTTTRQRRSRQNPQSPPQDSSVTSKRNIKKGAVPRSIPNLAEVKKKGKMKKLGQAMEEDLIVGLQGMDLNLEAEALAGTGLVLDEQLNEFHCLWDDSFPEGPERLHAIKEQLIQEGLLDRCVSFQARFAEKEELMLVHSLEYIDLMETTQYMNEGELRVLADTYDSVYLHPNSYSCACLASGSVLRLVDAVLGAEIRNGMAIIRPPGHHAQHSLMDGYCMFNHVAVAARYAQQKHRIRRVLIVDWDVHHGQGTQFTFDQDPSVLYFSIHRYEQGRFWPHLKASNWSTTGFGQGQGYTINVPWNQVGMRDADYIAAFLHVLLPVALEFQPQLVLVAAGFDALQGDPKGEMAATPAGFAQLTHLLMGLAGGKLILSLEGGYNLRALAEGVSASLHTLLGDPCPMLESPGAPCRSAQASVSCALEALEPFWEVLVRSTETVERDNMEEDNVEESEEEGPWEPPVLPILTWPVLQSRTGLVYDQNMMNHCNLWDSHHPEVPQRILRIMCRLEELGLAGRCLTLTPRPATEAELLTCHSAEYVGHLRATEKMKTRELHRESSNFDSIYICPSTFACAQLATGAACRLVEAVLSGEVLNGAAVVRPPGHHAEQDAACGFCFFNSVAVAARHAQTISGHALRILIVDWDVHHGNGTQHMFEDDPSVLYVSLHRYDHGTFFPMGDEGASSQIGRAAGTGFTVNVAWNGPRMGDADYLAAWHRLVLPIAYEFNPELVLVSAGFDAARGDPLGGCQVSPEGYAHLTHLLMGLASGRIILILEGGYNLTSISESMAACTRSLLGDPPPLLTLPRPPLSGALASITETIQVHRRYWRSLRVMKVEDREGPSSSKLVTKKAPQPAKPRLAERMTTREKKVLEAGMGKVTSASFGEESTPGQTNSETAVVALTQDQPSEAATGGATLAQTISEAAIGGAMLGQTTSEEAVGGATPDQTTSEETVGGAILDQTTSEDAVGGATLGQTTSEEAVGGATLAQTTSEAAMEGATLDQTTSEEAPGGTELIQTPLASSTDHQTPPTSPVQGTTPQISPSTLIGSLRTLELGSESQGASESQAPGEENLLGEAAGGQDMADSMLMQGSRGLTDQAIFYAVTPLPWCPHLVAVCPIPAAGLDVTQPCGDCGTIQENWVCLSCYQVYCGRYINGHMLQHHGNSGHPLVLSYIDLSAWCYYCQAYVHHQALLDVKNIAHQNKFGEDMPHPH
Sequence of HDAC3 (O15379 whole entry): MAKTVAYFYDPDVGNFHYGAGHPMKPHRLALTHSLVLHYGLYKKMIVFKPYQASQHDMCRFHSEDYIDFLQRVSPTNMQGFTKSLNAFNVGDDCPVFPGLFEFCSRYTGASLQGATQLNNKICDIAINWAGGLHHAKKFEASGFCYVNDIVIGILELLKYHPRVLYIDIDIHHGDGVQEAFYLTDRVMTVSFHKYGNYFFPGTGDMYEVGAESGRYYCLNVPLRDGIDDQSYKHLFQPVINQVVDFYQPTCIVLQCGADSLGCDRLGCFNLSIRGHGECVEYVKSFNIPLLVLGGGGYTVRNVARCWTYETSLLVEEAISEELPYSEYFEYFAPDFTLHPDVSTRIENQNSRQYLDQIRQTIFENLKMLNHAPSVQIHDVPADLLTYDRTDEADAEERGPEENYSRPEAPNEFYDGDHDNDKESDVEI
Sequence of HDAC3 (Q9Y618 395-489 partner): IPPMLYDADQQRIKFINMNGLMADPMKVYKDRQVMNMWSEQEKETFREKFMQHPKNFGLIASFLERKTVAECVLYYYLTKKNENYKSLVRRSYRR

| Structure (SMILES) | IC50 (HDAC6) | HDAC3 fold over HDAC6 IC50 (selectivity for HDAC6) (HDAC3) | IC50 (HDAC3) | HDAC2 fold over HDAC6 IC50 (selectivity for HDAC6) (HDAC2) | IC50 (HDAC2) | HDAC1 fold over HDAC6 IC50 (selectivity for HDAC6) (HDAC1) | IC50 (HDAC1) |
| --- | --- | --- | --- | --- | --- | --- | --- |
| O=C(NO)c1cnc(NC2(c3ccc(F)cc3)CC2)nc1 [Compound 81] | 3 nM | (46.4x) | 120 nM | (30.2x) | 78 nM | (18.3x) | 47 nM |
| CC(C)(Nc1ncc(C(=O)NO)cn1)c1cc(C(F)(F)F)cc(C(F)(F)F)c1 [Compound 92] | 33 nM | (134.4x) | 4420 nM | (68x) | 2240 nM | (41.3x) | 1360 nM |
| O=C(NO)c1cnc(NCc2cccc(C(F)(F)F)c2)nc1 [Compound 40] | 2 nM | (36.2x) | 70 nM | (28.7x) | 56 nM | (19.8x) | 38 nM |
| O=C(NO)c1cnc(NCc2ccccc2C(F)(F)F)nc1 [Compound 38] | 7 nM | (128.1x) | 891 nM | (103.5x) | 720 nM | (67.5x) | 470 nM |
| COc1cc(OC)cc(C2(Nc3ncc(C(=O)NO)cn3)CC2)c1 [Compound 129] | 3 nM | (36.6x) | 124 nM | (15.4x) | 52 nM | (12.7x) | 43 nM |
| O=C(NO)c1cnc(NC2(c3cc(C(F)(F)F)ccc3F)CC2)nc1 [Compound 126] | 2 nM | (9.8x) | 22 nM | (3.9x) | 9 nM | (3.2x) | 7 nM |
| O=C(NO)c1cnc(NCc2c(CO)cccc2CO)nc1 [Compound 51] | 11 nM | (33.6x) | 382 nM | (55x) | 624 nM | (41.2x) | 468 nM |
| O=C(NO)c1cnc(NCCc2c(Cl)cccc2Cl)nc1 [Compound 63] | 19 nM | (93.7x) | 1750 nM | (96.5x) | 1800 nM | (77.6x) | 1440 nM |
| O=C(NO)c1cnc(NC2(c3cc4ccccc4s3)CC2)nc1 [Compound 102] | 2 nM | (18x) | 33 nM | (11.3x) | 21 nM | (7.4x) | 13 nM |
| O=C(NO)c1cnc(NC2(c3ccc(F)cc3)CCCCC2)nc1 [Compound 100] | 9 nM | (1428.4x) | 13500 nM | (504.7x) | 4760 nM | (339.9x) | 3210 nM |
| CC(C)(Nc1ncc(C(=O)NO)cn1)c1ccc(C(F)(F)F)cc1 [Compound 74] | 6 nM | (394.2x) | 2380 nM | (168.4x) | 1020 nM | (147.5x) | 889 nM |
| COc1ccccc1CNc1ncc(C(=O)NO)cn1 [Compound 45] | 4 nM | (143.4x) | 506 nM | (148.5x) | 523 nM | (106.9x) | 377 nM |
| O=C(NO)c1cnc(NCc2cccs2)nc1 [Compound 105] | 4 nM | (92x) | 361 nM | (92.1x) | 361 nM | (54.5x) | 214 nM |
| O=C(NO)c1cnc(NCc2ccc(C(F)(F)F)cc2)nc1 [Compound 37] | 5 nM | (29.8x) | 149 nM | (25.4x) | 127 nM | (17.8x) | 89 nM |
| O=C(NO)c1cnc(NCCc2ccccc2Cl)nc1 [Compound 39] | 4 nM | (117.9x) | 495 nM | (92.2x) | 387 nM | (62.6x) | 263 nM |
| O=C(NO)c1cnc(NCCc2c[nH]c3ccccc23)nc1 [Compound 43] | 4 nM | (27.1x) | 107 nM | (30.3x) | 120 nM | (22.8x) | 90 nM |
| O=C(NO)c1cnc(NC2(c3cccc(OC(F)(F)F)c3)CC2)nc1 [Compound 125] | 2 nM | (27.1x) | 57 nM | (9x) | 19 nM | (8.7x) | 18 nM |
| O=C(NO)c1cnc(Nc2cc(F)cc(F)c2)nc1 [Compound 18] | 13 nM | (14.1x) | 177 nM | 13.5x) | 170 nM | (10.8x) | 136 nM |
| O=C(NO)c1cnc(NC(c2ccccc2)c2ccccc2)nc1 [Compound 60] | 2 nM | (98.1x) | 237 nM | (58.9x) | 142 nM | (53.5x) | 129 nM |
| O=C(NO)c1cnc(NC2CCCCC2)nc1 [Compound 103] | 46 nM | (23.9x) | 1100 nM | (18.1x) | 832 nM | (12.6x) | 578 nM |
| O=C(NO)c1cnc(NC2CCOCC2)nc1 [Compound 104] | 49 nM | (24x) | 1170 nM | (24.1x) | 1170 nM | (16.7x) | 813 nM |

Results, then the molecule that gave them:

| IC50 (HDAC6) | HDAC3 fold over HDAC6 IC50 (selectivity for HDAC6) (HDAC3) | IC50 (HDAC3) | HDAC2 fold over HDAC6 IC50 (selectivity for HDAC6) (HDAC2) | IC50 (HDAC2) | HDAC1 fold over HDAC6 IC50 (selectivity for HDAC6) (HDAC1) | IC50 (HDAC1) | Structure (SMILES) |
| --- | --- | --- | --- | --- | --- | --- | --- |
| 2 nM | (100.3x) | 212 nM | (60.2x) | 127 nM | (40.4x) | 85 nM | CC(C)(Nc1ncc(C(=O)NO)cn1)c1ccc(Cl)c(Cl)c1 [Compound 80] |
| 3 nM | (616.6x) | 1880 nM | (316.3x) | 966 nM | (374.2x) | 1140 nM | CC(C)(Nc1ncc(C(=O)NO)cn1)c1cccc(F)c1 [Compound 75] |
| 19 nM | (656.2x) | 12300 nM | (427.2x) | 8010 nM | (306.9x) | 5750 nM | Cc1cc(F)ccc1C(C)(C)Nc1ncc(C(=O)NO)cn1 [Compound 72] |
| 4 nM | (304.6x) | 1330 nM | (153.6x) | 669 nM | (137.3x) | 598 nM | Cc1cc(C(C)(C)Nc2ncc(C(=O)NO)cn2)ccc1F [Compound 78] |
| 3 nM | (289x) | 928 nM | (140.9x) | 452 nM | (139.2x) | 447 nM | CC(C)(Nc1ncc(C(=O)NO)cn1)c1ccc(Cl)cc1F [Compound 83] |
| 13 nM | (221.2x) | 2890 nM | (98.9x) | 1290 nM | (60.3x) | 788 nM | CC(C)(Nc1ncc(C(=O)NO)cn1)c1ccc(C(F)(F)F)cc1F [Compound 86] |
| 3 nM | (441.9x) | 1310 nM | (327.2x) | 972 nM | (217.2x) | 645 nM | CC(C)(Nc1ncc(C(=O)NO)cn1)c1ccc(F)cc1F [Compound 70] |
| 3 nM | (9.6x) | 26 nM | (4.3x) | 12 nM | (4.8x) | 13 nM | O=C(NO)c1cnc(NC2(c3ccc(F)cc3F)CC2)nc1 [Compound 123] |
| 3 nM | (495.3x) | 1480 nM | (362.4x) | 1080 nM | (254.8x) | 761 nM | CC(C)(Nc1ncc(C(=O)NO)cn1)c1ccc(F)cc1 [Compound 68] |
